Data published in the supplement of paper PMC10307832.

Columns and labels:
Assay in all cases: relative viability (nuclei count vs DMSO), 5 days (fraction); higher = more cells survive
Temozolomide + OSI-027 = compound: Cn1nnc2c(C(N)=O)ncn2c1=O [Temozolomide] + COc1cccc2cc(-c3nc([C@H]4CC[C@H](C(=O)O)CC4)n4ncnc(N)c34)[nH]c12 [OSI-027] (partner 0.5 µM)
How it was run: (§1)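 Values are medians from duplicate plates. Each reflects relative viability, defined as the nuclei count of treated wells over that of vehicle wells. Lung cancer cell lines in 1536-well plates were pin-tool dosed one day after seeding with one drug alone or with a fixed anchor-drug dose plus five library-drug doses (not always all listed) in √10 steps, then fixed, stained and imaged at 4× after 5 days.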

AZD5582 + Pictilisib = compound: C[C@@H](C(=O)N[C@@H](C1CCCCC1)C(=O)N2CCC[C@H]2C(=O)N[C@@H]3[C@@H](CC4=CC=CC=C34)OCC#CC#CCO[C@@H]5CC6=CC=CC=C6[C@@H]5NC(=O)[C@@H]7CCCN7C(=O)[C@H](C8CCCCC8)NC(=O)[C@H](C)NC)NC [AZD5582] + CS(=O)(=O)N1CCN(Cc2cc3nc(-c4cccc5[nH]ncc45)nc(N4CCOCC4)c3s2)CC1 [Pictilisib] (partner 1 µM)
How it was run: as §1

Temozolomide + AZD7762 = compound: Cn1nnc2c(C(N)=O)ncn2c1=O [Temozolomide] + NC(=O)Nc1cc(-c2cccc(F)c2)sc1C(=O)N[C@H]1CCCNC1 [AZD7762] (partner 0.2 µM)
How it was run: as §1

AZD5582 + Luminespib = compound: C[C@@H](C(=O)N[C@@H](C1CCCCC1)C(=O)N2CCC[C@H]2C(=O)N[C@@H]3[C@@H](CC4=CC=CC=C34)OCC#CC#CCO[C@@H]5CC6=CC=CC=C6[C@@H]5NC(=O)[C@@H]7CCCN7C(=O)[C@H](C8CCCCC8)NC(=O)[C@H](C)NC)NC [AZD5582] + CCNC(=O)c1noc(-c2cc(C(C)C)c(O)cc2O)c1-c1ccc(CN2CCOCC2)cc1 [Luminespib] (partner 0.01 µM)
How it was run: as §1

Row | Cell Line | relative viability (Temozolomide + OSI-027; first compound 0.2 µM) | relative viability (Temozolomide + OSI-027; first compound 0.6325 µM) | relative viability (Temozolomide + OSI-027; first compound 2 µM) | relative viability (Temozolomide + OSI-027; first compound 6.325 µM) | relative viability (Temozolomide + OSI-027; first compound 20 µM) | relative viability (AZD5582 + Pictilisib; first compound 0.001581 µM) | relative viability (AZD5582 + Pictilisib; first compound 0.005 µM) | relative viability (AZD5582 + Pictilisib; first compound 0.01581 µM) | relative viability (AZD5582 + Pictilisib; first compound 0.05 µM) | relative viability (Temozolomide + AZD7762; first compound 0.2 µM) | relative viability (Temozolomide + AZD7762; first compound 0.6325 µM) | relative viability (Temozolomide + AZD7762; first compound 2 µM) | relative viability (Temozolomide + AZD7762; first compound 6.325 µM) | relative viability (Temozolomide + AZD7762; first compound 20 µM) | relative viability (AZD5582 + Luminespib; first compound 0.001581 µM) | relative viability (AZD5582 + Luminespib; first compound 0.005 µM) | relative viability (AZD5582 + Luminespib; first compound 0.01581 µM) | relative viability (AZD5582 + Luminespib; first compound 0.05 µM)
1 | HOP-62 | 1.06 | 0.854 | 0.846 | 0.773 | 0.908 | 0.445 | 0.655 | 0.256 | 0.62 | 0.82 | 0.512 | 0.635 | 0.503 | 0.742 | 0.837 | 0.85 | 0.987 | 1.07
2 | IA-LM |  |  |  |  |  |  | 0.355 | 0.347 | 0.314 |  |  |  |  |  |  |  |  | 
3 | LC-2-ad | 0.782 | 0.917 | 0.926 | 0.825 | 0.737 | 0.327 | 0.673 | 0.644 | 0.662 | 0.842 | 0.85 | 0.873 | 0.837 | 0.675 | 1.1 | 1.03 | 0.942 | 0.901
4 | LCLC-97TM1 | 0.554 | 0.525 | 0.571 | 0.486 | 0.524 |  | 0.244 | 0.15 | 0.154 | 0.352 | 0.293 |  | 0.168 | 0.253 | 0.766 | 0.794 | 0.785 | 0.857
5 | LCLC-103H | 0.454 | 0.416 | 0.481 | 0.448 | 0.485 | 0.649 | 0.699 | 0.454 | 0.559 | 0.849 | 0.758 | 0.902 | 0.678 | 0.771 | 0.877 | 0.943 | 0.896 | 0.886
6 | LK-2 | 0.2 | 0.218 | 0.214 | 0.168 | 0.196 | 0.474 | 0.575 | 0.581 | 0.603 | 0.444 | 0.372 | 0.404 | 0.254 | 0.271 | 0.178 | 0.202 | 0.191 | 0.171
7 | NCI-H520 | 0.211 | 0.298 | 0.255 | 0.271 | 0.239 | 0.266 | 0.283 | 0.303 | 0.311 |  |  |  |  |  | 0.228 | 0.276 | 0.247 | 0.212
8 | NCI-H522 | 0.723 | 0.729 | 0.778 | 0.665 | 0.648 |  |  |  |  | 0.728 | 0.907 | 0.952 | 0.748 | 0.758 | 0.953 | 1.03 | 1.2 | 1.29
9 | NCI-H661 | 0.534 | 0.759 | 0.737 | 0.716 | 0.55 | 0.36 | 0.416 | 0.403 | 0.399 |  |  |  |  |  | 0.898 | 0.894 | 0.907 | 0.853
10 | NCI-H1299 |  |  |  |  |  | 0.702 | 0.879 | 0.822 | 0.805 |  |  |  |  |  |  |  |  | 
11 | NCI-H1563 | 0.781 | 0.817 | 0.77 | 0.789 | 0.796 | 0.644 | 0.642 | 0.62 | 0.729 |  |  |  |  |  | 0.509 | 0.551 | 0.52 | 0.52
